≈ marks a conversion by molar mass, not a printed value.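 Exposure lasted 48 hours, with cells grown in 96-well plates and compounds tested at five concentrations. GI50 is the concentration that inhibits growth by half. TGI: concentration producing complete growth inhibition.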
Assays:
Experiment in all cases: NCI tumour cell line growth inhibition, 48 h
ACHN renal = system: ACHN renal
HCC-2998 colon = system: HCC-2998 colon
HOP-92 NSCLC = system: HOP-92 NSCLC
SF-295 CNS = system: SF-295 CNS
SK-MEL-28 melanoma = system: SK-MEL-28 melanoma
SK-OV-3 ovarian = system: SK-OV-3 ovarian
SN12C renal = system: SN12C renal
TK-10 renal = system: TK-10 renal
SNB-75 CNS = system: SNB-75 CNS
U251 CNS = system: U251 CNS

Structure (SMILES)	TGI (ACHN renal)	TGI (HCC-2998 colon)	TGI (HOP-92 NSCLC)	TGI (SF-295 CNS)	TGI (SK-MEL-28 melanoma)	TGI (SK-OV-3 ovarian)	TGI (SN12C renal)	TGI (TK-10 renal)	TGI (SNB-75 CNS)	TGI (U251 CNS)	GI50 (HOP-92 NSCLC)	GI50 (ACHN renal)	GI50 (SF-295 CNS)	GI50 (SK-MEL-28 melanoma)	GI50 (SK-OV-3 ovarian)	GI50 (SN12C renal)	GI50 (SNB-75 CNS)	GI50 (TK-10 renal)	GI50 (U251 CNS)
COc1cc(C(C)O)c(S(=O)(=O)CC(C)O)nn1 (stereo unspecified)	> 100 µM	> 100 µM	> 100 µM	> 100 µM	> 100 µM	> 100 µM	> 100 µM	> 100 µM											
Cc1c2ccncc2cc2c1[nH]c1ccccc12		15.7 µM	15.2 µM	16.9 µM	5.91 µM	26.1 µM	9.12 µM		17 µM	7.65 µM									
CC(=O)OCC1OC(n2cc(F)c(=O)[nH]c2=O)C(NC(=O)OCc2ccccc2)C(OC(C)=O)C1OC(C)=O (stereo unspecified)		> 100 µM	> 100 µM	> 100 µM	> 100 µM	> 100 µM	> 100 µM		> 100 µM	> 100 µM									
O=C(N/N=C/c1cc(Cl)cc(Cl)c1[O-])c1ccccc1O.O=C(N/N=C/c1cc(Cl)cc(Cl)c1[O-])c1ccccc1O.[Co+2]	10.7 µM	6.63 µM	3.18 µM	12.9 µM	12.1 µM	6.45 µM		12 µM	18.9 µM	3.73 µM	0.471 µM								
CCP(=O)(CC)C(Cl)Cl	> 100 µM	> 100 µM	> 100 µM	> 100 µM	> 100 µM	> 100 µM	> 100 µM	> 100 µM	> 100 µM	> 100 µM									
O=C1CC2CC3OC3[C@H]3c4cc5c(cc4C(=O)N1C23)OCO5 (stereo partly specified)	> 100 µM	> 100 µM	> 100 µM	> 100 µM	> 100 µM	> 100 µM	> 100 µM	> 100 µM											
Nc1[nH]nc(Nc2ccc(Cl)cc2)c1P(=O)(c1ccccc1)c1ccccc1	> 100 µM	60.2 µM	70.8 µM	44.5 µM	64.9 µM	> 100 µM		> 100 µM	51.8 µM	> 100 µM									
CC(=O)c1c(C)nc(SSc2nc(C)c(C(C)=O)c(-c3ccc(Cl)cc3)c2C#N)c(C#N)c1-c1ccc(Cl)cc1	> 150 µg/mL			> 150 µg/mL	> 150 µg/mL	> 150 µg/mL	15 µg/mL	> 150 µg/mL	80.3 µg/mL	> 150 µg/mL		76.9 µg/mL (≈ 127 µM)	50.2 µg/mL (≈ 83.1 µM)	103 µg/mL (≈ 171 µM)	29.3 µg/mL (≈ 48.6 µM)	15 µg/mL (≈ 24.9 µM)	23.3 µg/mL (≈ 38.7 µM)	102 µg/mL (≈ 170 µM)	53.6 µg/mL (≈ 88.8 µM)
CC(=O)Nc1ccc(C(=O)NN2C(=O)C(Cl)/C2=C/c2ccco2)cc1 (stereo unspecified)	> 100 µM	> 100 µM	> 100 µM	> 100 µM	> 100 µM	> 100 µM		> 100 µM	> 100 µM	> 100 µM									
